The source made the active and inactive calls. The calls are words filed in the database; no cut-off is given here.
Assays:
[1] = target: T1, Indoleamine 2,3-dioxygenase 1 (Homo sapiens, UniProt P14902); assay: Inhibition of histidine-tagged human recombinant IDO expressed in bacterial strain BL21 AI using L-Trptophan as substrate measured at 490 nm wavelength at 100 uM after 6 min by colorimetric assay
Target sequence in this assay (P14902 whole entry, looked up): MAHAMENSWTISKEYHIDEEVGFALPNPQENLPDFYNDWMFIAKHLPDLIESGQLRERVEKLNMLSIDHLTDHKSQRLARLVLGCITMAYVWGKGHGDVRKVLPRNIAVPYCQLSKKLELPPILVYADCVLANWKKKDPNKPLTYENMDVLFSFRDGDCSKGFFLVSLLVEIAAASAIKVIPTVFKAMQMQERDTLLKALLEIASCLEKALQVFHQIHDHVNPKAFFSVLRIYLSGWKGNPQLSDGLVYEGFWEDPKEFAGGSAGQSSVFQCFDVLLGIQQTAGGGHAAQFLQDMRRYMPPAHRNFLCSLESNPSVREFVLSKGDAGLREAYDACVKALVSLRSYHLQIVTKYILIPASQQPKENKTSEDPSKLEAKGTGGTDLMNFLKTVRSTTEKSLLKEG

[2] = target: Tryptophan 2,3-dioxygenase (Mus musculus) (UniProt P48776); assay: Inhibition of mouse TDO expressed in mouse mastocytoma P815B cells using L-Trptophan as substrate at 20 uM after overnight by HPLC; format: cell-based
Chain of Tryptophan 2,3-dioxygenase (Mus musculus) (P48776 whole entry): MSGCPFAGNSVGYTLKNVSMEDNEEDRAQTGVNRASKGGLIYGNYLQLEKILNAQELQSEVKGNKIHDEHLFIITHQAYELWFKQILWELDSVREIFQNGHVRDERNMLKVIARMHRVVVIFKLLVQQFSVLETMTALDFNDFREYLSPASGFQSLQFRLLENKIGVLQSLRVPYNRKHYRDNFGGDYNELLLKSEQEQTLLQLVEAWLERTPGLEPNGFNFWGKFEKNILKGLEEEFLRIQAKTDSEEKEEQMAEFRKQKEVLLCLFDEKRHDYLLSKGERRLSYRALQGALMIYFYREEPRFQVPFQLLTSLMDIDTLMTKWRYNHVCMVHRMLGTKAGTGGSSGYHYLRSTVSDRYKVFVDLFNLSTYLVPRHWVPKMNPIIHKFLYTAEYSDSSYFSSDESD

[3] = Cytotoxicity against mouse mastocytoma P815B cells assessed as cell viability at 20 uM after overnight incubation by MTT assay; format: cell-based; conditions: for Activity: p815b, 20 µM; for viability at 20 µM: mastocytoma P815B cells, read-out: Activity
[4] = target: T1, Indoleamine 2,3-dioxygenase 1; assay: Uncompetitive inhibition of histidine-tagged human recombinant IDO expressed in bacterial strain BL21 AI using L-Trptophan as substrate measured at 490 nm wavelength after 6 min by colorimetric assay
Target sequence in this assay (P14902 whole entry): as the sequence (P14902 whole entry, looked up) above

[5] = target: T1, Indoleamine 2,3-dioxygenase 1; assay: Uncompetitive inhibition of histidine-tagged human recombinant IDO expressed in Escherichia coli using L-Trptophan as substrate assessed as hypochromic effect by UV analysis
Target sequence in this assay (P14902 whole entry, looked up): as above

[6] = target: T1, Indoleamine 2,3-dioxygenase 1; assay: Competitive inhibition of histidine-tagged human recombinant IDO expressed in bacterial strain BL21 AI using L-Trptophan as substrate measured at 490 nm wavelength after 6 min by colorimetric assay
Target sequence in this assay (P14902 whole entry): as the sequence (P14902 whole entry, looked up) above

[7] = target: Indoleamine 2,3-dioxygenase 1 (Mus musculus) (UniProt P28776); assay: Inhibition of mouse IDO expressed in mouse mastocytoma P815B cells using L-Trptophan as substrate at 20 uM after overnight by HPLC; format: cell-based
Chain of Indoleamine 2,3-dioxygenase 1 (Mus musculus) (P28776 whole entry, looked up): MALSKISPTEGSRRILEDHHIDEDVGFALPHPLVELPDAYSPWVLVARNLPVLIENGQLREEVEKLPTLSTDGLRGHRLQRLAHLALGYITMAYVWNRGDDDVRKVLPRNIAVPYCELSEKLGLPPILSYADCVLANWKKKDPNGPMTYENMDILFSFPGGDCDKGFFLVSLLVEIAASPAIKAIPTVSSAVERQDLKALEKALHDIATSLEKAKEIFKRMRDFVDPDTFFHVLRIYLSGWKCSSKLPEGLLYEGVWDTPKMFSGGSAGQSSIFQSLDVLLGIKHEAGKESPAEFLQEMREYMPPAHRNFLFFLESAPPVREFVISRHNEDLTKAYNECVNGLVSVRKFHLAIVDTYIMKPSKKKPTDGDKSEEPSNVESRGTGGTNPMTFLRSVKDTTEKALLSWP

Row | Structure (SMILES) | inhibition [2] | Activity [3] | viability at 20 µM [3] | further results
1 | N#Cc1ccc(-n2nnc3ccccc32)cc1 | – | – | – | inhibition [1]: > 50%
2 | Cn1cc(C[C@H](N)C(=O)O)c2ccccc21 [(L)-1-METHYLTRYPTOPHAN] | inactive | Non-toxic | – | –
3 | Cn1c(C(=O)Cc2cccnc2)cc2ccccc21 | inactive | Non-toxic | – | –
4 | O=C(Nc1cccnc1)c1cc2ccccc2[nH]1 | inactive | – | 75% | –
5 | COc1ccc2[nH]c(C(=O)Cc3cccnc3)cc2c1 | inactive | Non-toxic | – | –
6 | O=C(Cc1cccnc1)c1cc2c(F)cccc2[nH]1 | inactive | – | 80% | –
7 | O=C(Cc1cccnc1)c1cc2cc(F)ccc2[nH]1 | inactive | Non-toxic | – | –
8 | OC(Cc1cccnc1)c1cc2ccccc2[nH]1 (configuration not stated) | inactive | – | 90% | –
9 | O=C(Cc1cccnc1)c1cc2ccccc2[nH]1 | inactive | Non-toxic | – | Ki [4]: 190 µM; inhibition [1]: > 50%; Activity [5]: Active
10 | c1cncc(CCc2cc3ccccc3[nH]2)c1 | inactive | – | 90% | –
11 | Cn1c(C(=O)Cc2cccnc2)cc2cc(F)ccc21 | inactive | – | 95% | IC50 [6]: 92 µM; inhibition [7]: inactive
12 | Cc1ccc2[nH]c(C(=O)Cc3cccnc3)cc2c1 | inactive | Non-toxic | – | –
13 | O=C(Cc1cccnc1)c1cc2cc([N+](=O)[O-])ccc2[nH]1 | inactive | – | 90% | –
14 | O=C(Cc1cccnc1)c1cc2cc(Cl)ccc2[nH]1 | inactive | – | 90% | –
